US20230075765A1, “PYRROLO[2,3-D]PYRIMIDINE DERIVATIVE TARGETING EGFR MUTATION, AS WELL AS THE PREPARATIVE METHOD AND THE USE THEREOF” (WEST CHINA HOSPITAL, SICHUAN UNIVERSITY, priority 2020, published 2023)
Like-named read-outs stand apart in the source and are kept apart here.

Legend:
[1] = biological target: T1, EGFR (Homo sapiens, UniProt P00533); experiment: Kinase inhibition, mobility shift assay; format: biochemical; conditions: for Single-concentration inhibitory activity against EGFR, Mean (100% inhibition): compound concentration 80 nM; for IC50: wild-type EGFR, read-out: Inhibitory activity (IC50) on EGFR
T1 construct: purchased Carna 14-531
Protocol: (§1) According to relevant literature, the inhibitory activity of five kinases (EGFR, EGFR-LT, EGFR-LTC, BTK, JAK3) were tested. Note: EGFR, EGFR-LT, EGFR-LTC: wild-type EGFR, L858R/T790M (EGFR-LT), or L858R/T790M/C797S (EGFR-LTC) mutant protein.
(§2) 95 μl of 100% DMSO was added to the first well of a 96-well plate, and then 5 μl of 10 mM compound solution was added to prepare a 500 μM compound solution.
(§3) 10 μl solution was taken out from the 50-fold concentration of compound solution (prepared and tested), and transferred to a 96-well plate, to which was added 90 μl kinase buffer to prepare a 5-fold concentration of compound solution.
(§4) 5 μl solution was taken out from the 5-fold concentration of compound solution in a 96-well plate, and transferred to a 384-well reaction plate. For example, the solution was transferred from well A1 of a 96-well plate to wells A1 and A2 of a 384-well plate, from well A2 of a 96-well plate to wells A3 and A4 of a 384-well plate, and so on.
(§5) 1) The kinase was added to 1× kinase buffer to form 2.5× kinase solution;
(§6) 2) 10 μl of the above 2.5× kinase solution was transferred to a 384-well reaction plate, and 1× kinase buffer was added to the negative control well, then incubated for 10 min at room temperature;
(§7) 3) FAM-labeled polypeptide and ATP were added to 1× kinase buffer to form a 2.5×substrate solution;
(§8) 5) The 384-well reaction plate was incubated at 28° C. for 60 min, to which was added 30 μl of stop solution to stop the reaction, and the model of biochemical incubator was SPX-100B-Z.
(§9) The conversion rate was read on CaliperEZ Reader.
(§10) 1) The conversion rate data were copied from CaliperEZ Reader II;
(§11) 2) The conversion rate was converted into the inhibition rate;
(§12) Percent inhibition=(max−conversion)/(max−min)*100
(§13) “min” is the reading of the control well without enzyme; “max” is the reading of DMSO control well.
(§14) 3) IC50 values were fitted by using XLFit excel add-in version 5.4.0.8.
(§15) Fitting formula: Y=Bottom+(Top−Bottom)/(1+(IC50/X)^HillSlope)

[2] = biological target: T2, EGFR (T790M L858R) (Homo sapiens, UniProt P00533, L858R/T790M); experiment: Kinase inhibition, mobility shift assay; format: biochemical; conditions: for Single-concentration inhibitory activity against EGFR T790M L858R, Mean (100% inhibition): compound concentration 2 nM; for IC50: EGFR L858R/T790M double mutation, read-out: Inhibitory activity (IC50) on EGFR (T790M L858R); for inhibitory activity against EGFR L858R/T790M higher than against wild-type EGFR: ratio of IC50 values wild-type EGFR / EGFR L858R/T790M
T2 construct: purchased Invitrogen PR8911A
Protocol: as §1, §2, §3, §4, §5, §6, §7, §8, §9, §10, §11, §12, §13, §14, §15

[3] = test system: BEAS-2B cells; experiment: Inhibition of cell proliferation, CCK8 method; format: cell-based, human; conditions: BEAS-2B normal bronchial epithelial cells, 48 h, read-out: Inhibitory activity (IC50) against BEAS-2B
Protocol: (§16) Compounds 1-9 of the present invention were respectively weighed and dissolved in 1 ml of dimethyl sulfoxide (DMSO), to prepare a 10 mM drug solution, which was stored in a refrigerator at −20° C. in the dark after packaging. The stock solution was diluted with the corresponding culture medium to the required concentration just before the experiment.
(§17) HBE cells and BEAS-2B cells are normal lung bronchial epithelial cell lines, and both cells were cultured in DMEM high glucose medium (supplemented with 10% fetal bovine serum and 1% double antibody) to the logarithmic growth phase; H460 cells, A549 cells, H1975 cells and HCC827 cells are lung cancer cell lines, and all of them were cultured in RPMI1640 medium (supplemented with 10% fetal bovine serum and 1% double antibody) to the logarithmic growth phase. Among them, H1975 cells and HCC827 cells are EGFR mutant cells.
(§18) When the cells were cultured to 90% of the growth density, the cells were digested with 0.25% trypsin to prepare a single cell suspension. The cells were counted, and then seeded in a 96-well plate at a density of 5000 cells/well, 100 μl for each well. The culture plate was moved into a CO2 incubator and incubated for 24 h at 37° C. and 5% CO2. Compounds at different concentrations were added to each well, 5 replicate wells for each concentration, and the cells were treated with the compounds for 48 hours. CCK8 detection reagent was added to each well according to the operation manual, and then the plate was further incubated for 1 h before terminating the culture. 450 nm wavelength was chosen, and the absorbance value of each well was adjusted on the microplate ELISA analyzer. The result was recorded. […] was taken as the horizontal axis, and absorbance as the vertical axis to plot a curve. The half inhibitory concentration (IC50) was calculated by Bliss method. Each experiment was repeated at least 3 times.
(§19) Normal lung cell lines and different lung cancer cell lines were selected for experiments. Amongst, the compound with high anti-cancer activity was screened, whose anti-tumor activity was further studied.

[4] = test system: H460 cells; experiment: Inhibition of cell proliferation, CCK8 method; format: cell-based, human; conditions: 48 h, read-out: Inhibitory activity (IC50) against H460
Protocol: as §16, §17, §18, §19

[5] = test system: A549 cells; experiment: Inhibition of cell proliferation, CCK8 method; format: cell-based, human; conditions: A549 lung adenocarcinoma cells, 48 h, read-out: Inhibitory activity (IC50) against A549
Protocol: as §16, §17, §18, §19

[6] = test system: HBE cells; experiment: Inhibition of cell proliferation, CCK8 method; format: cell-based, human; conditions: for IC50: HBE normal bronchial epithelial cells, 48 h, CCK8, read-out: Inhibitory activity (IC50) against HBE
Protocol: (§20) The stock solution was diluted with the corresponding culture medium to the required concentration just before the experiment.
as §17
as §18, with “The” for “When the cells were cultured to 90% of the growth density, the cells were digested with 0.25% trypsin to prepare a single cell suspension. The”
(§21) Normal lung cell lines and different lung cancer cell lines were selected for experiments.

[7] = test system: HCC827 cells; experiment: Inhibition of cell proliferation, CCK8 method; format: cell-based, human; conditions: for IC50: HCC827 EGFR mutant cells, 48 h, CCK8, read-out: Inhibitory activity (IC50) against HCC827; for selectivity for HCC827 cells (in words): EGFR mutant HCC827 cells versus other cell lines
Protocol: as §20, §17
as §18, with “The” for “When the cells were cultured to 90% of the growth density, the cells were digested with 0.25% trypsin to prepare a single cell suspension. The”
as §21

[8] = test system: H1975 cells; experiment: Inhibition of cell proliferation, CCK8 method; format: cell-based, human; conditions: 48 h, read-out: Inhibitory activity (IC50) against H1975
Protocol: as §20, §17
as §18, with “The” for “When the cells were cultured to 90% of the growth density, the cells were digested with 0.25% trypsin to prepare a single cell suspension. The”
as §21

[9] = Homo sapiens, NCI-H460, H460 large cell lung cancer cells
[10] = Homo sapiens, NCI-H1975, H1975 EGFR mutant cells

T2 sequence (P00533 25-1210 T790M/L858R): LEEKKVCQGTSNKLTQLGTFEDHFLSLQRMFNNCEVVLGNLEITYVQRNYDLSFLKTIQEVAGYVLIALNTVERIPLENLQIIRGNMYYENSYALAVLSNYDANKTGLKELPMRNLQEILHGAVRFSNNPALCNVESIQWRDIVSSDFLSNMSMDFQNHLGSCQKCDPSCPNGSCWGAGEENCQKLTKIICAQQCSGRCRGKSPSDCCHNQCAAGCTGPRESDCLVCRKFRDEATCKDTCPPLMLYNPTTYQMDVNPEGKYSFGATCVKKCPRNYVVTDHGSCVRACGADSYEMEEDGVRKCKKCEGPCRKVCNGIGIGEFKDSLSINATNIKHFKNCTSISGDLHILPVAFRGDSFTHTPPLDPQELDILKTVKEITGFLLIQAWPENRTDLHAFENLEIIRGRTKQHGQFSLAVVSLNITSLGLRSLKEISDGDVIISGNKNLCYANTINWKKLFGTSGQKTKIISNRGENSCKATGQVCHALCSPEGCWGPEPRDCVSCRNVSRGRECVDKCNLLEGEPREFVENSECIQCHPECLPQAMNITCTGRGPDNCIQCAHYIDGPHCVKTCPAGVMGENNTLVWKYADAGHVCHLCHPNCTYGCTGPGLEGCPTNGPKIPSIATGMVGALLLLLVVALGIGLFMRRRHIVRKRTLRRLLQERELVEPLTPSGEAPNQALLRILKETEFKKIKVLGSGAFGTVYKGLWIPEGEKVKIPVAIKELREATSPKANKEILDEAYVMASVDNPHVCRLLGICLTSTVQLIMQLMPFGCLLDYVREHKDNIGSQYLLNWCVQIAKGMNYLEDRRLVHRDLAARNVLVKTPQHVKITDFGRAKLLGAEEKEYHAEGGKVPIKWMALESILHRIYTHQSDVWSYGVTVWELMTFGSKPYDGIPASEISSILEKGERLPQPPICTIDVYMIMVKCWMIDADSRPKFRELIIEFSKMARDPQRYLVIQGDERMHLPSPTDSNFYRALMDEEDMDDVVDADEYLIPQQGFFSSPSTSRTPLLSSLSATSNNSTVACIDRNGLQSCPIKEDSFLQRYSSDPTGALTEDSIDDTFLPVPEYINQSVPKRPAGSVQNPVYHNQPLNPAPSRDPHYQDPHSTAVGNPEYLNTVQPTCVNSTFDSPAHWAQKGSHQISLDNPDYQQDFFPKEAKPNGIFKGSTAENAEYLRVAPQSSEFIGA
T1 sequence (P00533 25-1210): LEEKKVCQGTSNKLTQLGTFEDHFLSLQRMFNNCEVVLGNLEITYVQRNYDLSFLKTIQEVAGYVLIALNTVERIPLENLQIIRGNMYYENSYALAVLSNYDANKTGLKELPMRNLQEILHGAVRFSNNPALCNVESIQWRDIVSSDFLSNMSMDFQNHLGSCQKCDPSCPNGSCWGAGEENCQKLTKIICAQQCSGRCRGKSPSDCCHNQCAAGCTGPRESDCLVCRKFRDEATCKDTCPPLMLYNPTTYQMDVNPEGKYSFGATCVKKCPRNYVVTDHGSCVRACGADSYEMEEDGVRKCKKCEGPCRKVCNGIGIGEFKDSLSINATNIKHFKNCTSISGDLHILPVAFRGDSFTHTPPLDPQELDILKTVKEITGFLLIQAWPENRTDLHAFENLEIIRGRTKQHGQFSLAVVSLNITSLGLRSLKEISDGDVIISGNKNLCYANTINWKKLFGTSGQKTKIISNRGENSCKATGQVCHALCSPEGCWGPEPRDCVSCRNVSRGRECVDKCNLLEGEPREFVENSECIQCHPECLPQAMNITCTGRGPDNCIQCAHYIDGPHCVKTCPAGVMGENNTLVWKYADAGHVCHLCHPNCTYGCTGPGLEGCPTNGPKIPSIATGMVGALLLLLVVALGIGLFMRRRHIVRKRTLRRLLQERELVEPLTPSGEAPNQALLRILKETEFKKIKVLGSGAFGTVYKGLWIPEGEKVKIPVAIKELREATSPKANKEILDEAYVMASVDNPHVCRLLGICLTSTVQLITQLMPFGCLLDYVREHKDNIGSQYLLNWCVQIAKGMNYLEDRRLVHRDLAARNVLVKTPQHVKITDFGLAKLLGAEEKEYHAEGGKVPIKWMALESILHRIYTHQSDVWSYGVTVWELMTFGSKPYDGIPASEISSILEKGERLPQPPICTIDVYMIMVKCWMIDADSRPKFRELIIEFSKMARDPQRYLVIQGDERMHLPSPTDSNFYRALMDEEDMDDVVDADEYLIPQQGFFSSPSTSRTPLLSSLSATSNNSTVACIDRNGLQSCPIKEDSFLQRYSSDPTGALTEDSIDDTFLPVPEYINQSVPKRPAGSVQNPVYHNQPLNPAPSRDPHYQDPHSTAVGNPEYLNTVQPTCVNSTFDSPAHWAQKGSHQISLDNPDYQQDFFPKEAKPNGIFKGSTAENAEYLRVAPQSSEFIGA

Structure (SMILES)	Single-concentration inhibitory activity against EGFR, Mean (100% inhibition) [1] [% inhibition]	Single-concentration inhibitory activity against EGFR T790M L858R, Mean (100% inhibition) [2] [% inhibition]	IC50 [1] [µM]	IC50 [2] [µM]	inhibitory activity against EGFR L858R/T790M higher than against wild-type EGFR [2] [fold]	IC50 [4, 9] [µM]	IC50 ([5]; Homo sapiens) [µM]	IC50 ([7]; Homo sapiens) [µM]	IC50 [8, 10] [µM]	IC50 ([3]; Homo sapiens) [µM]	IC50 ([6]; Homo sapiens) [µM]	also measured
C=CC(=O)Nc1cccc(Oc2nc(Nc3ccc(N4CCN(C)CC4)c(Cl)c3)nc3[nH]ccc23)c1 [Compound 2]	86	92	–	–	–	–	–	–	–	–	–	IC50 [3]: 3.8 µM; IC50 ([4]; H460 large cell lung cancer cells): 4.86 µM; IC50 [5]: 1.68 µM; IC50 [6]: 8.73 µM; IC50 [7]: 0.12 µM; IC50 ([8]; H1975 EGFR mutant cells): 1.67 µM
C=CC(=O)Nc1cccc(Oc2nc(Nc3ccc(N4CCN(C)CC4)c(OC)c3)nc3[nH]ccc23)c1 [Compound 4]	32	42	0.217	0.0031	70	33.6	20.6	0.26	22.4	9.89	12.5	selectivity for HCC827 cells (in words) [7]: high targeting selectivity
C=CC(=O)Nc1cccc(Oc2nc(Nc3ccc(N4CCN(C)CC4)c([N+](=O)[O-])c3)nc3[nH]ccc23)c1 [Compound 5]	37	49	0.145	0.0027	54	8.02	2.9	0.1	3.1	3.68	7.54	–
C=CC(=O)Nc1cccc(Oc2nc(Nc3ccc(N4CCN(C)CC4)c(N)c3)nc3[nH]ccc23)c1 [Compound 6]	63	36	0.064	0.0034	18	26.7	6.06	0.046	3.84	7.8	22.7	toxicity to normal epithelial cells HBE cells (in words) ([6]; compared with positive control commercially available Avtinib): less toxic; selectivity for HCC827 cells (in words) [7]: high targeting selectivity; selectivity coefficient ([7]; IC50 values against HBE cells compared with HCC827 cells): exceeds 490 times
C=CC(=O)Nc1cccc(Oc2nc(Nc3ccc(N4CCN(C)CC4)c(N)c3)nc3c2ccn3COC(=O)C(C)(C)C)c1 [Compound 8]	4.5	2.4	–	–	–	7.65	10.8	0.33	42	9.54	9.58	inhibitory activity on HCC827 cells (in words) ([7]; CCK8, 48 h): certain inhibitory effect

Further lines, with some results ahead:

Single-concentration inhibitory activity against EGFR, Mean (100% inhibition) [1] [% inhibition]	Single-concentration inhibitory activity against EGFR T790M L858R, Mean (100% inhibition) [2] [% inhibition]	IC50 [1] [µM]	IC50 [2] [µM]	inhibitory activity against EGFR L858R/T790M higher than against wild-type EGFR [2] [fold]	IC50 [4, 9] [µM]	IC50 ([5]; Homo sapiens) [µM]	IC50 ([7]; Homo sapiens) [µM]	IC50 [8, 10] [µM]	Structure (SMILES)	IC50 ([3]; Homo sapiens) [µM]	IC50 ([6]; Homo sapiens) [µM]	also measured
4.7	3.5	–	–	–	4.68	3.1	0.44	4.12	C=CC(=O)Nc1cccc(Oc2nc(Nc3ccc(N4CCN(C)CC4)c([N+](=O)[O-])c3)nc3c2ccn3COC(=O)C(C)(C)C)c1 [Compound 7]	5.73	3.61	–
3.6	0.1	–	–	–	25.1	9.63	51.7	52.3	C=CC(=O)Nc1cccc(Oc2nc(Nc3ccc(N4CCN(C)CC4)c(I)c3)nc3c2ccn3COC(=O)C(C)(C)C)c1 [Compound 9]	29.1	7.5	–
